# Reference: ChEMBL document CHEMBL3763055, “Evaluation of synthetic coumarins for antiausterity cytotoxicity against pancreatic cancers” (Bioorg Med Chem Lett, 2016)
# The source made the active and inactive calls. The calls are words filed in the database; no cut-off is given here.
# Key:
# [1] = Antiausterity activity against human PANC1 cells under nutrient deprived condition assessed as reduction in cell viability incubated for 24 hrs by WST-8 assay; type: functional, PANC-1
# [2] = Cytotoxicity against human PANC1 cells in DMEM assessed as reduction in cell viability at 100 uM incubated for 24 hrs by WST-8 assay; type: cell-based; details: panc-1, 24 h
# [3] = Antiausterity activity against human Capan1 cells under nutrient deprived condition assessed as reduction in cell viability incubated for 24 hrs by WST-8 assay; type: functional, CAPAN-1
# [4] = Antiausterity activity against human MIAPaCa2 cells under nutrient deprived condition assessed as reduction in cell viability incubated for 24 hrs by WST-8 assay; type: functional, MIA PaCa-2
# PANC-1 = assay: Induction of apoptosis in human PANC1 cells under nutrient deprived condition at 50 uM after 24 hrs by ethidium bromide/acridine orange staining based fluorescence microscopy; type: functional, cell-based
Structure (SMILES),PC50 [1],Activity [2],PC50 [3],PC50 [4],Activity (PANC-1)
CCCCCCCCOc1ccc2c(C)cc(=O)oc2c1C,>100 µM,Non-toxic,,,
CCCCCCCCCCCCCCOc1ccc2c(C)cc(=O)oc2c1,>100 µM,Non-toxic,,,
CCCCCCCCCCCCOc1ccc2c(CC)cc(=O)oc2c1,51 µM,Non-toxic,,,
CCCCCCCCOc1ccc2c(CC)cc(=O)oc2c1,29 µM,Non-toxic,,,
O=c1ccc2ccc(OCc3cn(Cc4ccc(C(F)(F)F)cc4)nn3)cc2o1,>100 µM,Non-toxic,>100 µM,9.6 µM,
CC(C)(CC(=O)/C=C/c1ccc(C(F)(F)F)cc1)C1Cc2c(ccc3ccc(=O)oc23)O1 (configuration not stated),0.023 µM,,,,
CC(C)c1ccc(Cn2cc(COc3ccc4ccc(=O)oc4c3)nn2)cc1,>100 µM,Non-toxic,,,
CC(C)(CC(=O)/C=C/c1cccc(C(F)(F)F)c1)C1Cc2c(ccc3ccc(=O)oc23)O1 (configuration not stated),0.079 µM,,,,
O=c1ccc2ccc(OCc3cn(Cc4cccc(C(F)(F)F)c4)nn3)cc2o1,29 µM,Non-toxic,18 µM,8.5 µM,Active
CCCCCCCCCCCCCCCCOc1ccc2c(C(F)(F)F)cc(=O)oc2c1,>100 µM,Non-toxic,,,
CCCCCCCCCCCCCCCCOc1ccc2c(C(F)(F)F)cc(=O)oc2c1C,>100 µM,Non-toxic,,,
CCCCCCCCOc1ccc2c(C)cc(=O)oc2c1,48 µM,Non-toxic,,,
CCCCCCCCOc1ccc2c(C(F)(F)F)cc(=O)oc2c1,63 µM,Non-toxic,,,
Cc1cc(=O)oc2cc(OCC3CC3)ccc12,>100 µM,Non-toxic,,,
CCCCCCCCCCCCOc1ccc2c(C)cc(=O)oc2c1,>100 µM,Non-toxic,,,
CCCCCCCCCCCCOc1ccc2c(C(F)(F)F)cc(=O)oc2c1C,>100 µM,Non-toxic,,,
O=c1ccc2ccc(OCc3cn(Cc4ccccc4)nn3)cc2o1,>100 µM,Non-toxic,,,
CCCCCCCCn1cc(COc2ccc3ccc(=O)oc3c2)nn1,>100 µM,Non-toxic,,,
COc1ccc(Cn2cc(COc3ccc4ccc(=O)oc4c3)nn2)cc1,>100 µM,Non-toxic,,,
CC(C)=CCC/C(C)=C/COc1cc2ccc(=O)oc2cc1O,7.2 µM,,,,
